# In paper PMC2726290, “Decoding of Methylated Histone H3 Tail by the Pygo-BCL9 Wnt Signaling Complex” (Molecular Cell, 2008):
# Where two headings read alike, the source gives them in different places.
# How the values were obtained:
# [1] = target: T1, hPHD-HD1 complex (hPygo1 PHD with hBCL9 HD1) (Homo sapiens, UniProt O00512+Q9Y3Y4); experiment: ITC, histone tail peptides with human PHD-HD1 complex; format: binding; conditions: ITC at 25 °C
# T1 construct: hPygo1 PHD (amino acids 333–402); GST (N, cleaved yes); made in house; host or cells: E. coli BL21-CodonPlus(DE3)-RIL
# T1 sequence (Q9Y3Y4 333-402): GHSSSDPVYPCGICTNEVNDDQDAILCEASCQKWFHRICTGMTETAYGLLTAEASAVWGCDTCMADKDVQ
# T1 sequence (O00512 177-205 partner limits assumed): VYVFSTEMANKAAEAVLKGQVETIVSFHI
# Experimental: (§1) ITC was carried out using a VP-ITC Microcal calorimeter (Microcal, Northhampton, MA, USA). Peptides were lyophilized against freshly prepared 20mM ammonium bicarbonate solution and resuspended in the ITC dialysis buffer (25mM Tris pH 8.0, 100mM NaCl and 2mM β-mercaptoethanol). Experiments were performed at 25 °C. During titration, 4-12µl aliquots of 0.5-1.0mM peptide solution was injected into a solution of 50µM protein at time intervals of 5 min. ITC data were corrected for the heat of dilution and analyzed using Origin (version 5.0) provided by the manufacturer. […]
# [2] = target: T2, PHD finger from hPygo1 (hPHD) (Homo sapiens, UniProt Q9Y3Y4); experiment: ITC, histone tail peptides with free hPHD; format: binding; conditions: 15-mer peptides, ITC at 25 °C, pH 8.0
# T2 construct: hPygo1 PHD (amino acids 333–402); GST (N, cleaved yes); made in house; host or cells: E. coli BL21-CodonPlus(DE3)-RIL
# T2 sequence (Q9Y3Y4 333-402): T1 sequence (Q9Y3Y4 333-402)
# Experimental: Free PHD fingers were purified similarly to the PHD-HD1 complexes, and purity was assessed by SDS-PAGE prior to use for ITC.
# as §1
# [3] = target: T3, dPHD-HD1 complex (Drosophila Pygo PHD with Lgs HD1) (Drosophila melanogaster, UniProt Q961D9+Q9V9W8); experiment: ITC, histone tail peptides with Drosophila PHD-HD1 complex; format: binding
# T3 construct: Drosophila Pygo PHD (amino acids 747–808); GST (N, cleaved yes); made in house; host or cells: E. coli BL21-CodonPlus(DE3)-RIL
# T3 sequence (Q9V9W8 747-808): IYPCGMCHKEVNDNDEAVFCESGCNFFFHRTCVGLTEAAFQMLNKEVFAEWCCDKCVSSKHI
# T3 sequence (Q961D9 316-350 partner limits assumed): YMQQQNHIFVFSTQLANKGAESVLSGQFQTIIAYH
# Experimental: as §1
# [4] = test system: PHD from hPygo1 (GST-hPHD); experiment: In vitro pull-down, MBP-tagged HD1 deletions with GST-hPHD; format: binding, human; conditions: systematic N- and C-terminal deletions of HD1, MBP-tagged
# Experimental: Figure S2. Deletion Analysis of hBCL9 HD1 and Binding to hPygo1 PHD
# (A) Systematic N- and C-terminal deletions of HD1 from hBCL9 (underlined), individually and combined (bottom); sequences between, and including, red (marking deletion end-points) were tested for their in vitro binding to PHD from hPygo1 (B), as summarized on […]
# (B) In vitro pull-down assays, to test binding between MBP-tagged HD1 deletions and GST-hPHD; positive controls, Lgs HD1, hBCL9 AKV-TER; negative controls, GST, MBP-ACTN2; IP, input (5%); G, GST; PHD, GST-hPHD. […]
molecule,measurement,setting,value
9-mer H3K4me2 A1>G: 9-mer whose A1 was substituted with a glycine (A1 > G) (GRTKQTARK; dimethyl-lysine at K4),binding (in words),"[1]; human PHD-HD1 complex, pH 8.0",reduced to almost background levels
"9-mer H3K4me2 ΔA1: truncated H3K4me2 peptide spanning R2-K9 (without A1, ΔA1) (RTKQTARK; dimethyl-lysine at K4)",binding (in words),"[1]; human PHD-HD1 complex, pH 8.0",No binding was detectable
C[C@H](N)C(=O)N[C@@H](CCCNC(=N)N)C(=O)N[C@H](C(=O)N[C@@H](CCCCN(C)C)C(=O)N[C@@H](CCC(N)=O)C(=O)N[C@H](C(=O)N[C@@H](C)C(=O)N[C@@H](CCCNC(=N)N)C(=O)N[C@@H](CCCCN)C(=O)O)[C@@H](C)O)[C@@H](C)O [9-mer H3K4me2],Kd,"[1]; Figure 3B, hPHD-HD1, pH 8.0, 100 mM NaCl, 25 mM Tris-HCl, 10 μM ZnCl2, 2 mM β-mercaptoethanol, 50µM protein, 0.5-1.0mM peptide, one-site model, ± fitting error, read-out: Binding constant (Kd)",11.4 ± 1.1 µM
CNCCCC[C@H](NC(=O)[C@@H](NC(=O)[C@H](CCCNC(=N)N)NC(=O)[C@H](C)N)[C@@H](C)O)C(=O)N[C@@H](CCC(N)=O)C(=O)N[C@H](C(=O)N[C@@H](C)C(=O)N[C@@H](CCCNC(=N)N)C(=O)N[C@@H](CCCCN)C(=O)N[C@@H](CO)C(=O)N[C@H](C(=O)NCC(=O)NCC(=O)N[C@@H](CCCCN)C(=O)N[C@@H](C)C(=O)O)[C@@H](C)O)[C@@H](C)O [15-mer H3K4me1],Kd,"[1]; human PHD-HD1 complex, pH 8.0, read-out: Kd",2.9 µM
same,Kd,[2],9 µM
same,Kd,"[3]; Figure 3B, dPHD-HD1, ITC at 25 °C, pH 8.0, 100 mM NaCl, 25 mM Tris-HCl, 10 μM ZnCl2, 2 mM β-mercaptoethanol, 50µM protein, 0.5-1.0mM peptide, one-site model, ± fitting error, read-out: Binding constant (Kd)",21.5 ± 0.3 µM
C[C@H](N)C(=O)N[C@@H](CCCNC(=N)N)C(=O)N[C@H](C(=O)N[C@@H](CCCCN(C)C)C(=O)N[C@@H](CCC(N)=O)C(=O)N[C@H](C(=O)N[C@@H](C)C(=O)N[C@@H](CCCNC(=N)N)C(=O)N[C@@H](CCCCN)C(=O)N[C@@H](CO)C(=O)N[C@H](C(=O)NCC(=O)NCC(=O)N[C@@H](CCCCN)C(=O)N[C@@H](C)C(=O)O)[C@@H](C)O)[C@@H](C)O)[C@@H](C)O [15-mer H3K4me2],Kd,"[1]; Figure 3A panel, hPHD-HD1, 15-mer peptides, 100 mM NaCl, 25 mM Tris-HCl pH 8.0, 10 μM ZnCl2, 2 mM β-mercaptoethanol, 50µM protein, 0.5-1.0mM peptide, one-site model, ± fitting error, read-out: Kd",0.93 ± 0.01 µM
same,Kd,[2],2.4 µM
same,Kd,"[3]; Figure 3A panel, dPHD-HD1, 15-mer peptide, ITC at 25 °C, 100 mM NaCl, 25 mM Tris-HCl pH 8.0, 10 μM ZnCl2, 2 mM β-mercaptoethanol, 50µM protein, 0.5-1.0mM peptide, one-site model, ± fitting error, read-out: Kd",12.6 ± 0.5 µM
C[C@H](N)C(=O)N[C@@H](CCCNC(=N)N)C(=O)N[C@H](C(=O)N[C@@H](CCCC[N+](C)(C)C)C(=O)N[C@@H](CCC(N)=O)C(=O)N[C@H](C(=O)N[C@@H](C)C(=O)N[C@@H](CCCNC(=N)N)C(=O)N[C@@H](CCCCN)C(=O)N[C@@H](CO)C(=O)N[C@H](C(=O)NCC(=O)NCC(=O)N[C@@H](CCCCN)C(=O)N[C@@H](C)C(=O)O)[C@@H](C)O)[C@@H](C)O)[C@@H](C)O [15-mer H3K4me3],Kd,[3],23 µM
"V177-I205: minimal PHD-interacting fragment of HD1 from hBCL9 (VYVFSTEMANKAAEAVLKGQVETIVSFHI; HD1; UniProt O00512 177-205, looked up, fragment)",PHD binding of HD1 fragment (in words),[4],minimal PHD-interacting fragment
